Earlier results in US20180250233A1, “TABLETS HAVING MEDIA INDEPENDENT ACTIVE SUBSTANCE DELIVERY” (MERCK PATENT GMBH, priority 2015, published 2018).

- elimination half-life (in vivo): 2 to 6 h
- bioavailability (oral administration, pronounced first-pass metabolism): 25-30%
SMILES: CC(C)NCC(O)COc1cccc2ccccc12 (centres unmarked) [propranolol]
